Source: publication PMC5933782, “Molecular structures of cdc2-like kinases in complex with a new inhibitor chemotype” (PLoS ONE, 2018)
Where a name gives a salt, the structure may show the parent alone. Read-outs that look alike come from different tables or passages of the source.

Legend:
[1] = target: CDK9/cyclin T (Homo sapiens, UniProt P50750); experiment: radiometric protein kinase assay
Procedure: (§1) Buffers. Buffer A: 10 mM MgCl2, 1 mM EGTA, 1 mM DTT, 25 mM Tris-HCl pH 7.5, 50 μg heparin/mL. Buffer C: 60 mM β-glycerophosphate, 15 mM p-nitrophenylphosphate, 25 mM MOPS (pH 7.2), 15 mM EGTA, 15 mM MgCl2, 1 mM DTT, 1 mM sodium vanadate, 1 mM phenylphosphate.
(§2) Kinase activities were assayed in buffer A or C at 30°C at a final ATP concentration of 15 μmol/L. Blank values were subtracted and activities were expressed in percent of the maximal activity, i.e. in the absence of inhibitors. Controls were performed with appropriate dilutions of DMSO.
(§3) Their kinase activity was assayed in buffer A, with 1 mg histone H1/mL, in the presence of 15 μmol/L [γ-33P] ATP (3,000 Ci/mmol; 10 mCi/mL) in a final volume of 30 μL. After 30 min incubation at 30°C, the reaction was stopped by harvesting onto P81 phosphocellulose supernatant (Whatman) using a FilterMate harvester (Packard) and washing in 1% phosphoric acid. Scintillation fluid was added and the radioactivity measured in a Packard counter.
(§4) All data points for construction of dose response curves were recorded in triplicate.

[2] = target: DYRK1A (Homo sapiens, UniProt Q13627); experiment: radiometric protein kinase assay; assay type: biochemical; details: 15 μmol/L ATP; read-out: IC50 DYRK 1A
[3] = target: GSK-3; experiment: radiometric protein kinase assay; assay type: biochemical, porcine; details: 15 μmol/L ATP; read-out: IC50 GSK3
[4] = target: CLK1 (Mus musculus, UniProt P22518); experiment: radiometric protein kinase assay
CLK1 (Mus musculus, UniProt P22518), sequence (P22518 whole entry): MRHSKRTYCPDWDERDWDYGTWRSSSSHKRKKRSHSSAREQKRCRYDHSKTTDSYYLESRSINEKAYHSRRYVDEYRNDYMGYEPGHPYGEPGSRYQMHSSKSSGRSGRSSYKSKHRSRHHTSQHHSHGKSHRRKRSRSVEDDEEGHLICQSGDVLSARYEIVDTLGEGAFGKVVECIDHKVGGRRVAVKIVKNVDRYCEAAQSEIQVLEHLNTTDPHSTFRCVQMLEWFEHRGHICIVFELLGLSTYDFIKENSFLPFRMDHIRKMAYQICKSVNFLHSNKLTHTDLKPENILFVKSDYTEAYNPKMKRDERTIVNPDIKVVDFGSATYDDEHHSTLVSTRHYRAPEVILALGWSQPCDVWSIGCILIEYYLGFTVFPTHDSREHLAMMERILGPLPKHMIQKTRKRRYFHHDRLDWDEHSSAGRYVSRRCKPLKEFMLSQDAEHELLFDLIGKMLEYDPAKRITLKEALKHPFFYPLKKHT
Procedure: Buffer A: 10 mM MgCl2, 1 mM EGTA, 1 mM DTT, 25 mM Tris-HCl pH 7.5, 50 μg heparin/mL. Buffer C: 60 mM β-glycerophosphate, 15 mM p-nitrophenylphosphate, 25 mM MOPS (pH 7.2), 15 mM EGTA, 15 mM MgCl2, 1 mM DTT, 1 mM sodium vanadate, 1 mM phenylphosphate.
Controls were performed with appropriate dilutions of DMSO. The GS-1, CKS, CDK7/9 tide and RS peptide substrates were obtained from Proteogenix (Oberhausbergen, France).
CDK1/cyclin B (M phase starfish oocytes, native), CDK2/cyclin A and CDK5/p25 (human, recombinant) were prepared as previously described [33]. […] ATP (3,000 Ci/mmol; 10 mCi/mL) in a final volume of 30 μL. After 30 min incubation at 30°C, the reaction was stopped by harvesting onto P81 phosphocellulose supernatant (Whatman) using a FilterMate harvester (Packard) and washing in 1% phosphoric acid. Scintillation fluid was added and the radioactivity measured in a Packard counter.
as §4

[5] = target: CDK1/cyclin B; experiment: radiometric protein kinase assay; assay type: biochemical, starfish; details: 15 μmol/L ATP
[6] = target: CK1δ/ε; experiment: radiometric protein kinase assay; assay type: biochemical, porcine; details: 15 μmol/L ATP; read-out: IC50 CK1
[7] = target: T1, CDK2/cyclin A (Homo sapiens, UniProt P24941); experiment: radiometric protein kinase assay; assay type: biochemical; details: 15 μmol/L ATP; read-out: IC50 CDK2/cyclinA
T1 construct: made in house

[8] = target: T2, CDK5/p25 (Homo sapiens, UniProt Q00535); experiment: radiometric protein kinase assay; assay type: biochemical; details: 15 μmol/L ATP
T2 construct: made in house
T2 sequence (Q00535 whole entry): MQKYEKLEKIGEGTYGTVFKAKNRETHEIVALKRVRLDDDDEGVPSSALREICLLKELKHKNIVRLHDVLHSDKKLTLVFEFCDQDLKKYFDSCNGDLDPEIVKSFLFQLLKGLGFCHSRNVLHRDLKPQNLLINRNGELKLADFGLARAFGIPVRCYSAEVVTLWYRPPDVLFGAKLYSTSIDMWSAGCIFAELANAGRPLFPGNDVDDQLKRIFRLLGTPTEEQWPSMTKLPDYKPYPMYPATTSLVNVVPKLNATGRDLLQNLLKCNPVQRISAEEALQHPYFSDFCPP
T2 sequence (Q15078 99-307 partner limits assumed): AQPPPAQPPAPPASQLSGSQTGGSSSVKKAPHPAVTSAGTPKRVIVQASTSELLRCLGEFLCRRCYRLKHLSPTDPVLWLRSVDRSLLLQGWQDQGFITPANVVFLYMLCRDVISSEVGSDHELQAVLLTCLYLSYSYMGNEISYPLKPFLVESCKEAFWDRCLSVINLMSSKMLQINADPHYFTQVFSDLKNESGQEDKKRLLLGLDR

[9] = target: CLK2 (Mus musculus, UniProt O35491); experiment: radiometric protein kinase assay
CLK2, sequence (O35491 whole entry): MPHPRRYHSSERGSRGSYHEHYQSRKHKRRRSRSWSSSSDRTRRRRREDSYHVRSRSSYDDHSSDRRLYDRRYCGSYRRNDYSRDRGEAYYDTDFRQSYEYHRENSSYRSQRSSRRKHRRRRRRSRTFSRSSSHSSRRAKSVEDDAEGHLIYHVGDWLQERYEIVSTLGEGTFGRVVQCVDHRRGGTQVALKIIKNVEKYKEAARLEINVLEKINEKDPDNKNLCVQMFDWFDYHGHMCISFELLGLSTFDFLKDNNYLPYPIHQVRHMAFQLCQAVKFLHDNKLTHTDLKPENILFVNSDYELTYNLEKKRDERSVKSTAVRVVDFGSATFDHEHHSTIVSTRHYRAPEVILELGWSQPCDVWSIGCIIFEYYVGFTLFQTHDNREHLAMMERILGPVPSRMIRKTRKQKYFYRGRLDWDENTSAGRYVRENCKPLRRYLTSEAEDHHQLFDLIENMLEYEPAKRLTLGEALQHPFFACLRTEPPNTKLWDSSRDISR

[10] = target: DYRK1B (Homo sapiens, UniProt Q9Y463); experiment: radiometric protein kinase assay; assay type: biochemical; details: 15 μmol/L ATP; read-out: IC50 DYRK 1B
DYRK1B, sequence (Q9Y463 whole entry): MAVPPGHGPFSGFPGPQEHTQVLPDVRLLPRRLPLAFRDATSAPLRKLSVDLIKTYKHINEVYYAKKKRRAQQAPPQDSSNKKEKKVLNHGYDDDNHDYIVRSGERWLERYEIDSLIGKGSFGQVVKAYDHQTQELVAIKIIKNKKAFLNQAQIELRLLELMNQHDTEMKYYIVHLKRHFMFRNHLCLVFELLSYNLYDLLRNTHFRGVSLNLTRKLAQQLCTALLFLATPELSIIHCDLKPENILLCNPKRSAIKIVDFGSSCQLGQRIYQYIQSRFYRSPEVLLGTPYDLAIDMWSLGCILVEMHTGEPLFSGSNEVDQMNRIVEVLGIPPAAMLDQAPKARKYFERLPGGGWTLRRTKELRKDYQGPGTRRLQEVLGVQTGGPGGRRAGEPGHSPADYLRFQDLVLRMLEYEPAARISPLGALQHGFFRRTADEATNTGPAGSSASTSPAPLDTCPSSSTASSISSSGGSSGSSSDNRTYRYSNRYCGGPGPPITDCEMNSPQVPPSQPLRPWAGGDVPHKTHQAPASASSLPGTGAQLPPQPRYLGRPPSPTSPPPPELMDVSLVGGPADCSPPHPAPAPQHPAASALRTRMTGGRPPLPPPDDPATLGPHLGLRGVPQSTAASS

[11] = target: T3, DYRK2 (Homo sapiens, UniProt Q92630); experiment: radiometric protein kinase assay; assay type: biochemical; details: 15 μmol/L ATP; read-out: IC50 DYRK 2
T3 sequence (Q92630 1-601): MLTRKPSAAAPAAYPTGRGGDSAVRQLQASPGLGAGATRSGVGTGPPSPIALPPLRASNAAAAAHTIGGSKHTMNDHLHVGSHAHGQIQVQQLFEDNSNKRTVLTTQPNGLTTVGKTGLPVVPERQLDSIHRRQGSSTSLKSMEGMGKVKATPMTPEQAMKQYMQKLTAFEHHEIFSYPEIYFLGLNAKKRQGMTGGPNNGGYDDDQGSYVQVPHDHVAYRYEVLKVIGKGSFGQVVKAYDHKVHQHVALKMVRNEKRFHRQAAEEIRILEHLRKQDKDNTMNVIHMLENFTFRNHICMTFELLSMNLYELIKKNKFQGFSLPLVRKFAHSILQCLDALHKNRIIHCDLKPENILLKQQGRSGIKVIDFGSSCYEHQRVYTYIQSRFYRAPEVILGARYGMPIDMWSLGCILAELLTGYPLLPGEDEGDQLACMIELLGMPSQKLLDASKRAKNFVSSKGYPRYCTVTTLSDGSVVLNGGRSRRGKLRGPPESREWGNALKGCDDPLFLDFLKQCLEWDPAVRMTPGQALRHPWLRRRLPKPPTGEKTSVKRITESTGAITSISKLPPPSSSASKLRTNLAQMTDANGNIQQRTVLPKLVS

[12] = target: T4, DYRK3 (Homo sapiens, UniProt O43781); experiment: radiometric protein kinase assay; assay type: biochemical; details: 15 μmol/L ATP; read-out: IC50 DYRK 3
T4 sequence (O43781 1-588): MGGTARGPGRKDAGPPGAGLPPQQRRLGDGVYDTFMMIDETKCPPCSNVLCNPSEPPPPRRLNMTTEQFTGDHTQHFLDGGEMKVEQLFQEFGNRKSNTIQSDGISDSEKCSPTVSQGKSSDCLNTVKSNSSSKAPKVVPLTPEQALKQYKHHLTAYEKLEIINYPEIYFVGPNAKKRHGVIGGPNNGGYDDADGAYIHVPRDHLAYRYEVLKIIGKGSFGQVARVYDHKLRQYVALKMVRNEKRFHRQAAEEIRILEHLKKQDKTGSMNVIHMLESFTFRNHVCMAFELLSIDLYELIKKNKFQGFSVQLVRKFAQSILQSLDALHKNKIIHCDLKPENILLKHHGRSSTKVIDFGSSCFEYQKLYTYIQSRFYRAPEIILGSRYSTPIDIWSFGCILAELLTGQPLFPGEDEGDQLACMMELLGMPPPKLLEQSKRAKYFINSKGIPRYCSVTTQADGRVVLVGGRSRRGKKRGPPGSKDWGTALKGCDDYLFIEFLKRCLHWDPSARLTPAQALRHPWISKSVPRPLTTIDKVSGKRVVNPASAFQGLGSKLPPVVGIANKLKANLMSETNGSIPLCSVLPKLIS

[13] = target: CLK3 (Mus musculus, UniProt O35492); experiment: radiometric protein kinase assay
CLK3, sequence (O35492 whole entry): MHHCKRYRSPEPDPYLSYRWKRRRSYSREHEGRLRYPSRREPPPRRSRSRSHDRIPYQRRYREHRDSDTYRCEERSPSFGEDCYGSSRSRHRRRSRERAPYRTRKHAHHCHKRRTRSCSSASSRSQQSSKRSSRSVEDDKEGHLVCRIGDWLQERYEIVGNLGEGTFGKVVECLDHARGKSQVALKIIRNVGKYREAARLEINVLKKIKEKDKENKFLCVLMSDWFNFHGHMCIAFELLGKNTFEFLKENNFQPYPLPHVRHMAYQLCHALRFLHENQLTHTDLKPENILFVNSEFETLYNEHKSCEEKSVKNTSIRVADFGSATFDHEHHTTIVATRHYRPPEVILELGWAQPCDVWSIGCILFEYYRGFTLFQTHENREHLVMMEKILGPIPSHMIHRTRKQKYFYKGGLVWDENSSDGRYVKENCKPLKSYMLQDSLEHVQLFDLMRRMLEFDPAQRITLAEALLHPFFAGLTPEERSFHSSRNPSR

[14] = target: CLK4 (Mus musculus, UniProt O35493); experiment: radiometric protein kinase assay
CLK4, sequence (O35493 whole entry): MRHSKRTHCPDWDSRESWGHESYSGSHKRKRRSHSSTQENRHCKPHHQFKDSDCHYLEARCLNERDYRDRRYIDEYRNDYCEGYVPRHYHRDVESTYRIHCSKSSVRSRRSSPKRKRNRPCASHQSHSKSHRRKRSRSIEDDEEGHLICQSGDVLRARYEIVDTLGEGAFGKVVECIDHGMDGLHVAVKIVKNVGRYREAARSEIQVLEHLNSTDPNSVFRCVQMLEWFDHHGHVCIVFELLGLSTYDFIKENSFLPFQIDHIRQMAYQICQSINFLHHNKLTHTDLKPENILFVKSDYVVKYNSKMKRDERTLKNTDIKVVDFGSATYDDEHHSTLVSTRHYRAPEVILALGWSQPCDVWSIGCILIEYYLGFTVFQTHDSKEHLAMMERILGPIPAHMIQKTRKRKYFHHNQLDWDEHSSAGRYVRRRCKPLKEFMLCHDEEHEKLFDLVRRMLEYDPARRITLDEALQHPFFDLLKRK
Procedure: as §1, §2, §3, §4

[15] = system: DYRK1A; parameters: method as in PMID 21450467; details: cited from earlier work
[16] = system: CLK1; parameters: method as in PMID 21450467; details: cited from earlier work
[17] = system: DYRK1A; parameters: method as in PMID 28561591; details: cited from earlier work
[18] = system: CLK1; parameters: method as in PMID 28561591; details: cited from earlier work

CDK9/cyclin T, sequence (P50750 whole entry): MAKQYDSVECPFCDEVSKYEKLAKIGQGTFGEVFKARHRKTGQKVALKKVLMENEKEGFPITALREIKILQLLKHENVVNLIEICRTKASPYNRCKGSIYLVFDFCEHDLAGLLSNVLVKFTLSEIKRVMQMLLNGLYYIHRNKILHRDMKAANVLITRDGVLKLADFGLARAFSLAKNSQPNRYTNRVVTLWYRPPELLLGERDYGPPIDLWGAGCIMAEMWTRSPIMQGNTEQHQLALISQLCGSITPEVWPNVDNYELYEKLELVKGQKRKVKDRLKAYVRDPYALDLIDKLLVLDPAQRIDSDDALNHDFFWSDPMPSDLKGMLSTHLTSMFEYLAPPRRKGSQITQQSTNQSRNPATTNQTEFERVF
CDK9/cyclin T, sequence (O60563 whole entry partner): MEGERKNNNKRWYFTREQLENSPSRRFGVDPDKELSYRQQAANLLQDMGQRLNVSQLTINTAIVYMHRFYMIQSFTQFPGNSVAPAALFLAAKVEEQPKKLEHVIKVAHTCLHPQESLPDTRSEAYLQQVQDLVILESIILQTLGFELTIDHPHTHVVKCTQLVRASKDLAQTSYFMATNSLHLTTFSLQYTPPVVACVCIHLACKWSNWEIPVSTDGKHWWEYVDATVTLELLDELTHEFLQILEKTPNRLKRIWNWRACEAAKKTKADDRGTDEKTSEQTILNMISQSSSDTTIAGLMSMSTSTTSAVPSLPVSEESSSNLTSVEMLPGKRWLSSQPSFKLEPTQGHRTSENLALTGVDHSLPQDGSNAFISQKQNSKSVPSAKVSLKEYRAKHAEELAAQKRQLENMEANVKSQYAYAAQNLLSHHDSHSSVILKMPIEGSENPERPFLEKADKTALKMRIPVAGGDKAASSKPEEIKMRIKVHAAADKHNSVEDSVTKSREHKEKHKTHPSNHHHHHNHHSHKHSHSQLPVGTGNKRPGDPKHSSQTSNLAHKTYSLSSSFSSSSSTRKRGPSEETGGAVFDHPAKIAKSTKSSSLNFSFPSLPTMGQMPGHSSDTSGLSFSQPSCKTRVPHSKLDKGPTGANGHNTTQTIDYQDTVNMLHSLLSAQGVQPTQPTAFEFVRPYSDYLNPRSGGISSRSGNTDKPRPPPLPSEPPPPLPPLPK

SMILES	melting point	IC50 [1] [µM]	IC50 [2] [µM]	IC50 [3] [µM]	IC50 [4] [µM]	IC50 [5] [µM]	IC50 [6] [µM]	IC50 [7] [µM]	IC50 [8] [µM]	also measured
O=C1NCc2ccc3c(-c4ccccc4)c[nH]c3c21 (as salt: sodium) [8a, 3-Phenyl-6,7-dihydropyrrolo[3,4-g]indol-8(1H)-one]	294 to 295 °C	–	–	–	–	–	–	–	–	–
O=C1NCc2ccc3c(-c4ccc(Cl)cc4)c[nH]c3c21 (as salt: sodium) [8d, 3-(4-Chlorophenyl)-6,7-dihydropyrrolo[3,4-g]indol-8(1H)-one]	255 to 257 °C	–	–	–	–	–	–	–	–	–
O=C1NCc2ccc3c(-c4ccc(Cl)c(Cl)c4)c[nH]c3c21 (as salt: sodium) [8e, 3-(3,4-Dichlorophenyl)-6,7-dihydropyrrolo[3,4-g]indol-8(1H)-one]	258 to 259 °C	–	–	–	–	–	–	–	–	–
Cc1cccc(-c2c[nH]c3c4c(ccc23)CNC4=O)c1 (as salt: sodium) [8i, 3-(3-Methylphenyl)-6,7-dihydropyrrolo[3,4-g]indol-8(1H)-one]	231 to 232 °C	–	–	–	–	–	–	–	–	–
Cc1[nH]c2c3c(ccc2c1-c1ccccc1)CNC3=O (as salt: sodium) [8k, 2-Methyl-3-phenyl-6,7-dihydropyrrolo[3,4-g]indol-8(1H)-one]	245 to 247 °C	–	–	–	–	–	–	–	–	–
CCc1[nH]c2c3c(ccc2c1-c1ccccc1)CNC3=O (as salt: sodium) [8l, 2-Ethyl-3-phenyl-6,7-dihydropyrrolo[3,4-g]indol-8(1H)-one]	165 to 170 °C	–	–	–	–	–	–	–	–	–
O=C1NCc2c(Br)cc3c(-c4ccccc4)c[nH]c3c21 (as salt: sodium) [12a, 5-Bromo-3-phenyl-6,7-dihydropyrrolo[3,4-g]indol-8(1H)-one]	226 to 227 °C	–	–	–	–	–	–	–	–	–
CN1Cc2ccc3c(-c4ccccc4)c[nH]c3c2C1=O (as salt: sodium) [12d, 7-Methyl-3-phenyl-6,7-dihydropyrrolo[3,4-g]indol-8(1H)-one]	265 to 267 °C	–	–	–	–	–	–	–	–	–
O=C1NCc2ccc3c(-c4ccccc4Cl)c[nH]c3c21 [8b, 3-(2-Chlorophenyl)-6,7-dihydropyrrolo[3,4-g]indol-8(1H)-one]	234 to 235 °C	> 10	1.1	> 10	0.14	> 10	> 10	> 10	> 10	–
COc1cccc(-c2c[nH]c3c4c(ccc23)CNC4=O)c1 [8f, 3-(3-Methoxyphenyl)-6,7-dihydropyrrolo[3,4-g]indol-8(1H)-one]	207 to 208 °C	> 10	3.8	> 10	0.11	> 10	> 10	> 10	> 10	IC50 [9]: 0.32 µM; IC50 [10]: 1.9 µM; IC50 [11]: 2.1 µM; IC50 [12]: 5.4 µM; IC50 [13]: 2.8 µM; IC50 [14]: 0.11 µM
O=C1NCc2ccc3c(-c4cccc([N+](=O)[O-])c4)c[nH]c3c21 [8j, 3-(3-Nitrophenyl)-6,7-dihydropyrrolo[3,4-g]indol-8(1H)-one]	237 to 238 °C (dec.)	> 10	> 10	> 10	0.038	> 10	> 10	> 10	> 10	IC50 [9]: 0.37 µM; IC50 [10]: 1.5 µM; IC50 [11]: 4.9 µM; IC50 [12]: 1.9 µM; IC50 [13]: 8.5 µM; IC50 [14]: 0.061 µM
Cn1cc(-c2ccccc2)c2ccc3c(c21)C(=O)NC3 [15a, 1-Methyl-3-phenyl-6,7-dihydropyrrolo[3,4-g]indol-8(1H)-one]	255 to 256 °C	> 10	> 10	> 10	0.19	> 10	> 10	> 10	> 10	IC50 [9]: 1.1 µM; IC50 [10]: > 10 µM; IC50 [11]: > 10 µM; IC50 [12]: > 10 µM; IC50 [13]: > 10 µM; IC50 [14]: 0.16 µM
CCn1cc(-c2ccccc2)c2ccc3c(c21)C(=O)NC3 [15b, 1-Ethyl-3-phenyl-6,7-dihydropyrrolo[3,4-g]indol-8(1H)-one]	198 to 200 °C	> 10	3.9	> 10	0.38	> 10	> 10	> 10	> 10	–
CCOC(=O)Cn1cc(-c2ccccc2)c2ccc3c(c21)C(=O)NC3 [15d, Ethyl 2-(8-oxo-3-phenyl-7,8-dihydropyrrolo[3,4-g]indol-1(6H)-yl)acetate]	226 to 227 °C	> 10	> 10	> 10	> 10	> 10	> 10	> 10	> 10	–
O=C1NCc2c(-c3ccccc3F)cc3c(-c4ccccc4)c[nH]c3c21 [17b, 5-(2-Fluorophenyl)-3-phenyl-6,7-dihydropyrrolo[3,4-g]indol-8(1H)-one]	136 to 139 °C	> 10	> 10	> 10	5.8	> 10	> 10	> 10	> 10	IC50 [9]: 4.1 µM; IC50 [10]: > 10 µM; IC50 [11]: > 10 µM; IC50 [12]: > 10 µM; IC50 [13]: > 10 µM; IC50 [14]: 0.91 µM
Cc1nc(CNc2ncnc3ccc(-c4ccc5c(c4)OCO5)cc23)cs1 [NCGC00185963]	–	–	–	–	–	–	–	–	–	IC50 [15]: 0.206 µM; IC50 [16]: 0.096 µM
COc1ccc2sc(C(=O)N(C)Cc3cccc(F)c3)cc2c1 [compound 4]	–	–	–	–	–	–	–	–	–	IC50 [17]: 0.34 µM; IC50 [18]: 0.007 µM
